Data set [1] can be described thus: Plasma protein binding (free fraction), human plasma. Here is the method: (§1) Pharmacokinetic analyses were performed at F. Hoffmann-La Roche as described in supporting Materials and Methods S1.
The next data set has as its system Male Wistar rats. The data set is described as follows: Spontaneous locomotor activity during the active phase. The format is in vivo, rat. The following applies: for spontaneous LMA: vehicle 6097±536; for effect on spontaneous LMA (in words): 3, 10, 30 mg/kg ip at ZT15, almorexant significant only at 30 mg/kg, SB-334867 at 10 and 30 mg/kg. On the procedure: Locomotor activity (LMA) was evaluated at F. Hoffmann-La Roche as described previously. Male Wistar rats were placed for 2 weeks in a 12 h light/12 h dark cycle with light onset at 22∶00 (ZT0). […] Spontaneous LMA was recorded for a period of 30 min. At the end of the experiment, the brain and plasma were collected for determination of the drug exposure and brain/plasma concentration ratio.
Horizontal locomotor activity was recorded for a period of 30 min. Numbers on the X-axes represent intraperitoneal doses in mg/kg.***p<0.001, **p<0.01, *p<0.05 vs. Veh (one-way ANOVA followed by Dunnett’s analysis). All data are mean±SEM (n = 8 per group).

Data set [2] is described as follows: Plasma protein binding (free fraction), rat plasma. On the procedure: as §1
(§2) Cmax, maximum concentration; Tmax, time at which maximum concentration was observed; AUC, area under the plasma concentration vs. time curve; CL, clearance; Vss, volume of distribution at steady state; T1/2, terminal half-life; F, bioavailability; Fu, Fraction unbound. Plasma values are mean, n=2.

The nature of data set [3]: Stability in human plasma. Here is the method: as §1
A short description of data set [4]: Pharmacokinetics after single i.v. or p.o. bolus in Wistar rat. On the procedure:
as §1, §2

A further data set can be described thus: Stability in rat plasma. Here is the method: as §1
[5] abbreviates: i.v., dose 2.40 / 5.18 / 12.10 mg/kg.
Setting [6] is: p.o., dose 6.35 / 8.75 / 18.16 mg/kg.

The structures appear in SMILES notation.

For orientation: Tmax means the time at which the peak concentration occurs. In turn, `Cc1nc2ccc(NC(=O)Nc3ccnc4cccnc34)cc2o1.Cl` [SB-334867, 1-(2-methylbenzoxazol-6-yl)-3-[1], [5]naphthyridin-4-yl-urea hydrochloride] returned a free fraction in data set [1] of 1.3%. Besides, the “spontaneous LMA” value with Male Wistar rats (10 mg/kg ip at ZT15, 30 min recording) amounted to 3509±383; in the data set with Male Wistar rats (30 mg/kg ip at ZT15, 30 min recording) it was 2626±341. Moreover, the “effect on spontaneous LMA (in words)” value with Male Wistar rats is “dose-dependently reduced spontaneous LMA”. Moreover, the “Fu (fraction unbound / free fraction)” value in data set [2] came to 0.8%. The stability in plasma stood at 95% in data set [3] (1 h), 93% in data set [3] (4 h), 104% in “Stability in rat plasma” (1 h) and 110% in “Stability in rat plasma” (4 h). Moreover, the CL in data set [4] (i.v.) is on record as 5.40 mL/min/kg. The same compound came in with a Vss in data set [4] (i.v.) of 0.57 L/kg. Further, the values for the AUC/Dose in data set [4] (setting [5]) and in data set [4] (setting [6]) were 3118.90 ng/h/mL and 1423.50 ng/h/mL, respectively. Besides, the “T1/2 (terminal half-life)” value in data set [4] (setting [5]) is listed as 1.21 h; in data set [4] (setting [6]), 3.10 h. The results for the Tmax in data set [4] (setting [5]) and in data set [4] (setting [6]) were 0.00 h and 1.50 h, respectively. In addition, the Cmax/Dose in data set [4] (i.v., dose almorexant 2.40, SB-334867 5.18, SB-408124 12.10 mg/kg) stood at 1937.40 ng/mL; in data set [4] (p.o., dose almorexant 6.35, SB-334867 8.75, SB-408124 18.16 mg/kg), 331.10 ng/mL. The “F (bioavailability)” value in data set [4] (p.o.) came to 45.70%. Moreover, in data set [4] (rat), the “Vss (in words)” value is “medium”. Moreover, the “oral bioavailability (in words)” value in data set [4] (rat) was “medium”. The “systemic plasma clearance (in words)” value in data set [4] (rat) was “low”.

What is called fraction unbound is the share of the substance not bound to proteins or other matrix. The low end stands for little free substance, the high end for much free substance. Broadly, the Vd is a proportionality between amount in the body and measured concentration, not a real space. Low values mean little distribution into tissue, high ones wide distribution into tissue. The term clearance denotes the rate of elimination divided by the concentration. A low value points to a low capacity for elimination. The term half-life denotes the time in which the quantity being followed falls by half. For orientation: bioavailability means dose-corrected exposure relative to a reference, in per cent. For the compound `CNC(=O)[C@@H](c1ccccc1)N1CCc2cc(OC)c(OC)cc2[C@@H]1CCc1ccc(C(F)(F)F)cc1` [almorexant, (2R)-2-[(1S)-6,7-Dimethoxy-1-[2-(4-trifluoromethyl-phenyl)-ethyl]-3,4-dihydro-1H-isoquinolin-2-yl]-N-methyl-2-phenyl-acetamide], in data set [1] (human, plasma), the fraction unbound was below 0.037. Further, in the data set on Male Wistar rats, the “effect on spontaneous LMA (in words)” value is given as “dose-dependently reduced LMA”. The compound further showed a fraction unbound in data set [2] (rat, plasma) below 0.087. The compound also came in with a stability in plasma in data set [3] (2 h) of 90.0%. In data set [4] (Wistar, rat, in vivo, iv), the AUC/Dose was 193.70 ng/h/mL, the Tmax was 0 h, the Vd came out at 9.45 L/kg and the clearance stood at 87.1 mL/min/kg. In data set [4] (Wistar, rat, in vivo, iv), this compound had a half-life of 2.58 h. For the same compound, the Cmax/Dose in data set [4] (Wistar, rat, in vivo, iv, 12.1 mg/kg) amounted to 238.20 ng/mL. Also, in data set [4] (Wistar, rat, in vivo, po), the AUC/Dose is reported as 28.00 ng/h/mL, the Tmax is 0.5 h, the bioavailability stood at 14.4% and the half-life is 1.29 h. In data set [4] (Wistar, rat, in vivo, po, 18.16 mg/kg), the Cmax/Dose was 12.90 ng/mL. Further, in data set [4] (rat, in vivo), the “Vss (in words)” value is recorded as “high” and the “systemic plasma clearance (in words)” value is on record as “high”. The “oral bioavailability (in words)” value in data set [4] (rat, in vivo, po) is reported as “low”. Also, the stability in plasma in “Stability in rat plasma” (2 h) is on record as 95.0%.

Values taken from publication PMC3388080 (PLoS ONE, 2012).
